Results on 1 compound are retold here after BindingDB's records for doi:10.1016/j.bmcl.2017.09.011 (Alma Mater Studiorum-University of Bologna, 2017).

For the assay, the target named is DNA topoisomerase 2-alpha (Homo sapiens, UniProt P11388). Nature of the assay: ChEBML_1696318. The method, then:
Inhibition of recombinant human topoisomerase-2alpha expressed in Saccharomyces cerevisiae JEL1 harboring topoisomerase1 deletion mutant assessed as reduction in enzyme-mediated [gamma32P]ATP hydrolysis using relaxed pBR322 DNA as substrate after 8 mins

SMILES strings stand for the structures.

Sequence of DNA topoisomerase 2-alpha (P11388 whole entry): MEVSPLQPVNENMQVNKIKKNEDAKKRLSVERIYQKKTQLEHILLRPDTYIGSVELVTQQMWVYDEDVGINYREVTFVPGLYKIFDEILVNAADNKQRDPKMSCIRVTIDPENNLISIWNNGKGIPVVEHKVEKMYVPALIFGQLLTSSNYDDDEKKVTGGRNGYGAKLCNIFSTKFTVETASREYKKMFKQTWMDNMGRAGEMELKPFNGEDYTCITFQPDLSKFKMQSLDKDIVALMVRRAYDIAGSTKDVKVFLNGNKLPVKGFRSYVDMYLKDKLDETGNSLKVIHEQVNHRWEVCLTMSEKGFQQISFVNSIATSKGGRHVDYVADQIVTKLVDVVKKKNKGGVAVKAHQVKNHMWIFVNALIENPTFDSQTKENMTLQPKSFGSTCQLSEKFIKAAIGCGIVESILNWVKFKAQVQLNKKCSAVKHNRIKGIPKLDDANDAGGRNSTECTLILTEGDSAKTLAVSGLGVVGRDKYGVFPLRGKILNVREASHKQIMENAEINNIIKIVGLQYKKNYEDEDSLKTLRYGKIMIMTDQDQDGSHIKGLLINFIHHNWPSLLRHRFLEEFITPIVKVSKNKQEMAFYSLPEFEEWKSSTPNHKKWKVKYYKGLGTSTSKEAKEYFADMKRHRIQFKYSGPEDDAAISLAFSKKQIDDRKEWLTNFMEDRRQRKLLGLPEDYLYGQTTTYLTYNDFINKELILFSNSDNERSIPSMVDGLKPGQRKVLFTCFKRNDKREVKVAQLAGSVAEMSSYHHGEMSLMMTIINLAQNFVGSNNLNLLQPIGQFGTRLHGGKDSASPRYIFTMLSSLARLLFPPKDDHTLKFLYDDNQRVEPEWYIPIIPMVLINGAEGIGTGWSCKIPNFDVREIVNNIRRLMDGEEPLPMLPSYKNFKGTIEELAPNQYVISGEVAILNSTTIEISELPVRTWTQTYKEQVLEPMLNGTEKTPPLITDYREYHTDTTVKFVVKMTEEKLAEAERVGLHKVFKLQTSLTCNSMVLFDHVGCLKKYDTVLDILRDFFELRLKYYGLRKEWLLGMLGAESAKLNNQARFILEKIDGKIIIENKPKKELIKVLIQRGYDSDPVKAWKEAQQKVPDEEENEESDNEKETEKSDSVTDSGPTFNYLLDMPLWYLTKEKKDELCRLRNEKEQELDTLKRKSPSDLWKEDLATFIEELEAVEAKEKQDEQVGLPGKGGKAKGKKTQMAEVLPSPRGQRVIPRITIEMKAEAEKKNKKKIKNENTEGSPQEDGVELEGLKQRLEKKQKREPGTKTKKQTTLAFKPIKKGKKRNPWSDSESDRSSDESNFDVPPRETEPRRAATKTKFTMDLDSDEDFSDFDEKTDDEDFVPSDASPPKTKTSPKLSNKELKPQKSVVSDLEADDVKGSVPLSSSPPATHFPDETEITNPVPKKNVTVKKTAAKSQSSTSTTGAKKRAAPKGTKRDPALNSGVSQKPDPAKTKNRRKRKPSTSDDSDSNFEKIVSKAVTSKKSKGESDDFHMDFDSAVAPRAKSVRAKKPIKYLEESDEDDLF

As a reminder, the IC50 is the midpoint of a concentration-inhibition curve. Regarding `NCCCCNCC(O)COc1cc(O)c2c(=O)c3ccccc3oc2c1` (stereo unspecified), the IC50 was found to be 2.5 µM. In other words, the single-digit micromolar range.
